Measured values reported in patent US4559346A, “Certain N-octahydro-indolizinebenzamides and their use in treating psychosis, cardiac arrhythmia and hypertension” (Beecham Group p.l.c., priority 1982, dated 1985).

Tested on: post-synaptic Dopamine (D.A.) receptors
Assay: Inhibition of apomorphine induced climbing in the mouse
Type: in vivo
Settings: male CDI mice, p.o., 1/2 hour post dosing, apomorphine 1 mg/kg s.c.; for ED50: Mus musculus, po, 0.5 h, read-out: ED50 (dose for 50% inhibition of apomorphine-induced climbing); for ED50 (dose for 50% inhibition of apomorphine-induced climbing): 30 min
Experimental: Inhibition of apomorphine induced climbing in the mouse
The test is based on that described by Protais, P., Constantin, J. and Schwartz J. C.
When mice are given a dose of 1 mg/kg apomorphine and then placed in an enclosed environment, such as an inverted wire cage, they are seen to climb around the walls. This behavioural phenomenon is thought to be a consequence of the stimulation of post-synaptic Dopamine (D.A.) receptors in the nucleus accumbens. Inhibition of apomorphine induced climbing is therefore indicative of post-synaptic D.A. receptor blockade in the accumbens.
Groups of 10 male CDI mice, weighing 25-30 g were pretreated orally with either graded doses of the test compound or vehicle, at appropriate time intervals before the subcutaneous administration of a sub-maximal dose of apomorphine (1 mg/kg). Immediately after the apomorphine injection the mice were placed in wire `climbing cages` and each animal was scored for climbing behavour at 10 and 20 minutes post apomorphine as follows:
Four paws on cage floor=0
The total score was calculated for each group of mice and expressed as a percentage inhibition of climbing.
Total score for apomorphine control

Compound | ED50 | ED50 (dose for 50% inhibition of apomorphine-induced climbing)
COc1cc(N)c(Cl)cc1C(=O)N[C@H]1CCN2C[C@@H](c3ccccc3)C[C@H]2C1 (relative stereo) [2 (a), (±) 4-Amino-5-chloro-2-methoxy-N-[7'β-(3'β-phenyl-1'-aza-5'αH-bicyclo[4,3,0]nonyl)]benzamide] | 0.235 mg/kg | 
(±) 4-Amino-5-chloro-2-methoxy-N-(7'β-[3'-o-fluorophenyl-1'-aza-5'αH-bicyclo[4,3,0]nonyl)]benzamide [2 (d)] |  | 0.52 mg/kg p.o.
COc1cc(N)c(Cl)cc1C(=O)NC1CCN2CC(C)(c3ccccc3)CCC12 (racemic) [2 (c), (±) 4-Amino-5-chloro-2-methoxy-N-[7'β-[3'-methyl-3'-phenyl-1'-aza-5'αH-bicyclo[4,3,0]nonyl)]benzamide] |  | 0.48 mg/kg p.o.
COc1cc(N)c(Cl)cc1C(=O)N[C@H]1CCN2C[C@@H](c3ccc(F)cc3)C[C@H]2C1 (relative stereo) [2 (b), (±) 4-Amino-5-chloro-2-methoxy-N-[7'β-(3'β-p-fluorophenyl-1'-aza-5'αH-bicyclo[4,3,0]nonyl)]benzamide] | 0.195 mg/kg | 
